# Results taken from patent US11946059B2, “In vivo generation of water-soluble cannabinoids in plant cell suspension cultures” (Trait Biosciences Inc., priority 2017, dated 2024).
# Assay: Cannabinoid stability in solution (time course incubation)
# Format: physicochemical
# Settings: for Day 0 concentration in solution / Day 1 concentration in solution / Day 4 concentration in solution / Day 5 concentration in solution / Day 6 concentration in solution / Day 7 concentration in solution: room temperature, shielded from light
# Description: Rather, levels increased slightly in all treatments. The absence of any residual UGTs were cross-check and confirmed as the samples were purified by SPE, washed and eluted in 30% and 65%-100% ethanol, respectively.
# Materials and Methods Example 19: Cannabinoid Stability in Solution.
# The present inventors generated a stock solution of the CBD/CBDA+glycosides mixture in water which was further diluted 10× in all treatment solutions. A 10 mL starting volume was used for all treatments, and all treatments were prepared in triplicate. […] Each sample was incubated at room temperature. Samples were stored in 15 mL polypropylene centrifuge tubes. All samples were shielded from light—tubes were wrapped in aluminum foil. Each sample was prepared in triplicate in the following buffers: water only; pH=3; pH=4; pH=7; pH=8; water only+10 mM ascorbic acid; pH=3+10 mM ascorbic acid; pH=4+10 mM ascorbic acid; pH=7+10 mM ascorbic acid; and pH=8+10 mM ascorbic acid.
# [1] = Water + AA (10 mM ascorbic acid)
# [2] = pH = 3 + AA (10 mM ascorbic acid)
# [3] = pH = 4 + AA (10 mM ascorbic acid)
# [4] = pH = 7 + AA (10 mM ascorbic acid)
# [5] = pH = 8 + AA (10 mM ascorbic acid)
structure (smiles),measurement,setting,value
C=C(C)C1CCC(C)=CC1c1c(O)cc(CCCCC)cc1OC1OC(COC(C)=O)C(O)C(O)C1O (stereo not shown) [1X CBD O-Acetyl Gly],Day 0 concentration in solution,[1],102.24 ± 12.18 µg/mL
same,Day 0 concentration in solution,Water,137.46 ± 35.49 µg/mL
same,Day 0 concentration in solution,[2],110.44 ± 13.31 µg/mL
same,Day 0 concentration in solution,pH = 3,126.49 ± 43.90 µg/mL
same,Day 0 concentration in solution,[3],118.27 ± 1.16 µg/mL
same,Day 0 concentration in solution,pH = 4,101.60 ± 31.49 µg/mL
same,Day 0 concentration in solution,[4],108.19 ± 19.12 µg/mL
same,Day 0 concentration in solution,pH = 7,107.55 ± 20.03 µg/mL
same,Day 0 concentration in solution,[5],137.53 ± 6.71 µg/mL
same,Day 0 concentration in solution,pH = 8,108.41 ± 12.42 µg/mL
same,Day 1 concentration in solution,[1],204.63 ± 24.09 µg/mL
same,Day 1 concentration in solution,Water,136.86 ± 139.68 µg/mL
same,Day 1 concentration in solution,[2],223.32 ± 48.67 µg/mL
same,Day 1 concentration in solution,pH = 3,216.46 ± 9.61 µg/mL
same,Day 1 concentration in solution,[3],198.56 ± 24.37 µg/mL
same,Day 1 concentration in solution,pH = 4,150.94 ± 27.25 µg/mL
same,Day 1 concentration in solution,[4],185.02 ± 35.46 µg/mL
same,Day 1 concentration in solution,pH = 7,250.75 ± 6.23 µg/mL
same,Day 1 concentration in solution,[5],180.83 ± 33.60 µg/mL
same,Day 1 concentration in solution,pH = 8,221.10 ± 16.30 µg/mL
same,Day 4 concentration in solution,[1],153.06 ± 28.19 µg/mL
same,Day 4 concentration in solution,Water,160.23 ± 23.75 µg/mL
same,Day 4 concentration in solution,[2],157.19 ± 1.58 µg/mL
same,Day 4 concentration in solution,pH = 3,174.88 ± 14.16 µg/mL
same,Day 4 concentration in solution,[3],144.44 ± 18.85 µg/mL
same,Day 4 concentration in solution,pH = 4,225.84 ± 39.59 µg/mL
same,Day 4 concentration in solution,[4],176.48 ± 33.58 µg/mL
same,Day 4 concentration in solution,pH = 7,190.05 ± 24.38 µg/mL
same,Day 4 concentration in solution,[5],152.03 ± 5.79 µg/mL
same,Day 4 concentration in solution,pH = 8,174.09 ± 59.87 µg/mL
same,Day 5 concentration in solution,[1],146.60 ± 10.68 µg/mL
same,Day 5 concentration in solution,Water,131.77 ± 33.91 µg/mL
same,Day 5 concentration in solution,[2],97.81 ± 29.67 µg/mL
same,Day 5 concentration in solution,pH = 3,83.72 ± 35.56 µg/mL
same,Day 5 concentration in solution,[3],113.89 ± 31.15 µg/mL
same,Day 5 concentration in solution,pH = 4,164.84 ± 35.61 µg/mL
same,Day 5 concentration in solution,[4],110.66 ± 48.12 µg/mL
same,Day 5 concentration in solution,pH = 7,186.93 ± 5.65 µg/mL
same,Day 5 concentration in solution,[5],92.06 ± 15.47 µg/mL
same,Day 5 concentration in solution,pH = 8,162.75 ± 31.35 µg/mL
same,Day 6 concentration in solution,[1],200.20 ± 37.42 µg/mL
same,Day 6 concentration in solution,Water,148.36 ± 33.57 µg/mL
same,Day 6 concentration in solution,[2],190.69 ± 36.71 µg/mL
same,Day 6 concentration in solution,pH = 3,175.06 ± 31.37 µg/mL
same,Day 6 concentration in solution,[3],215.72 ± 16.69 µg/mL
same,Day 6 concentration in solution,pH = 4,231.03 ± 36.34 µg/mL
same,Day 6 concentration in solution,[4],205.61 ± 26.64 µg/mL
same,Day 6 concentration in solution,pH = 7,267.45 ± 30.83 µg/mL
same,Day 6 concentration in solution,[5],217.66 ± 11.23 µg/mL
same,Day 6 concentration in solution,pH = 8,218.64 ± 22.05 µg/mL
same,Day 7 concentration in solution,[1],167.42 ± 22.79 µg/mL
same,Day 7 concentration in solution,Water,185.62 ± 22.87 µg/mL
same,Day 7 concentration in solution,[2],147.21 ± 8.07 µg/mL
same,Day 7 concentration in solution,pH = 3,195.77 ± 15.07 µg/mL
same,Day 7 concentration in solution,[3],166.23 ± 17.10 µg/mL
same,Day 7 concentration in solution,pH = 4,201.23 ± 6.99 µg/mL
same,Day 7 concentration in solution,[4],157.89 ± 17.21 µg/mL
same,Day 7 concentration in solution,pH = 7,187.10 ± 28.07 µg/mL
same,Day 7 concentration in solution,[5],181.7 ± 29.53 µg/mL
same,Day 7 concentration in solution,pH = 8,193.61 ± 21.84 µg/mL
same,change of level in solution over the incubation,"all treatments, after day 7, room temperature",not found to decrease in any sample after day 7
